Results taken from patent US8653074B2, “Substituted sodium 1H-pyrazol-5-olate” (Bayer Intellectual Property GmbH, priority 2010, dated 2014).

Assays:
EGLN2/PHD1 = molecular target: T1, EGLN2/PHD1 (Homo sapiens, UniProt Q96KS0); assay: Inhibition of the activity of HIF prolyl hydroxylase (VBC complex binding test); type: biochemical; conditions: mean for EGLN2/PHD1
T1 construct: host or cells: cell lysate
Experimental: The test is carried out as described [Oehme F., Jonghaus W., Narouz-Ott L., Huetter J., Flamme I., Anal. Biochem. 330 (1), 74-80 (2004)]:
A clear 96-well microtiter plate coated with NeutrAvidin HBC (Pierce) is incubated with blocker casein for 30 minutes. The plate is then washed three times with 200 μl each time of wash buffer (50 mM Tris, pH 7.5, 100 mM NaCl, 10% (v/v) blocker casein, 0.05% (v/v) Tween 20) per well. The peptide biotin-[sequence] (Eurogentec, 4102 Seraing, Belgium) is added in a concentration of 400 nM in 100 μl wash buffer. This peptide serves as a substrate for the prolyl hydroxylation and is bonded to the microtiter plate. After incubation for 60 minutes, the plate is washed three times with wash buffer, incubated with 1 mM biotin in blocker casein for 30 minutes and then washed again three times with wash buffer.
To carry out the prolyl hydroxylase reaction, the peptide substrate bonded to the plate is incubated with a cell lysate containing prolyl hydroxylase for 1 to 60 minutes. […]

EGLN1/PHD2 = EGLN1/PHD2 (Homo sapiens, UniProt Q9GZT9); assay: biochemical
Experimental: Hydroxylated HIF bonds specifically to the von Hippel-Lindau protein-elongin B-elongin C complex (VBC complex). This interaction occurs only if HIF is hydroxylated on a conserved prolyl radical. It is the basis for the biochemical determination of HIF prolyl hydroxylase activity.
A clear 96-well microtiter plate coated with NeutrAvidin HBC (Pierce) is incubated with blocker casein for 30 minutes. The plate is then washed three times with 200 μl each time of wash buffer (50 mM Tris, pH 7.5, 100 mM NaCl, 10% (v/v) blocker casein, 0.05% (v/v) Tween 20) per well. […] This peptide serves as a substrate for the prolyl hydroxylation and is bonded to the microtiter plate. After incubation for 60 minutes, the plate is washed three times with wash buffer, incubated with 1 mM biotin in blocker casein for 30 minutes and then washed again three times with wash buffer. […]
For quantitative determination of the prolyl hydroxylation, a fusion protein which contains both thioredoxin from E. coli and the VBC complex in 80 μl bonding buffer (50 mM Tris, pH 7.5, 120 mM NaCl) is added. […] The amount of bonded VBC complex is determined by measurement of the optical density at 450 nm. […]
Alternatively, a VBC complex coupled to europium (Perkin Elmer) can be used for detection of the prolyl hydroxylation. In this case, the amount of bonded VBC complex is determined by the fluorescence with respect to time.

Solubility in water = type: physicochemical; conditions: for solubility thermodynamic at 16 h: thermodynamic from solid, water, 25° C., stirred 16 hours, HPLC
Experimental: Method: Saturated solutions of the test substance were prepared by stirring a suspension in water at 25° C. for 16 hours. The suspensions obtained were then filtered, and the content in the filtrate was determined by HPLC.

[1] = Vapour adsorption and vapour desorption (moisture sorption isotherm); type: physicochemical; conditions: customary environmental conditions (20-35° C., atmospheric pressure)
[2] = as above; type: physicochemical; conditions: for Adsorption / Desorption: 25° C.
Experimental: Vapour Adsorption and Vapour Desorption:
The moisture sorption isotherm was recorded using a Dynamic Vapour Sorption Analyzer IGA Sorp from Hiden Analytical. The measuring temperature was 25° C. There was no sample preparation.

[3] = tested on: recombinant A549 cell line with luciferase reporter under hypoxia-responsible elements; assay: Cellular, functional in vitro test (luciferase reporter under hypoxia-responsible elements); type: cell-based; conditions: Homo sapiens
Excerpt: 1.b) Cellular, Functional in vitro Test:
The activity of the compounds according to the invention is quantified with the aid of a recombinant cell line. The cell is originally derived from a human lung carcinoma cell line (A549, ATCC: American Type Culture Collection, Manassas, Va. 20108, USA). The test cell line is transfected in a stable manner with a vector which contains the reporter gene of Photinus pyralis luciferase (called luciferase in the following) under the control of an artificial minimal promoter. […] Under the effect of hypoxia (e.g. culturing in the presence of 1% oxygen for 24 hours) or under the action of non-selective dioxygenase inhibitors (e.g. desferroxamine in a concentration of 100 μM, cobalt chloride in a concentration of 100 μM or N-oxalylglycine diethyl ester in a concentration of 1 mM), the test cell line produces luciferase, which can be detected and quantified with the aid of suitable bioluminescence reagents (e.g. Steady-Glo® Luciferase Assay System, Promega Corporation, Madison, Wis. 53711, USA) and a suitable luminometer.
On the day before the test, the cells are plated out in an exactly calculated amount of culture medium (DMEM, 10% FCS, 2 mM glutamine) in 384- or 1,536-well microtiter plates and kept in a cell incubator (96% atmospheric humidity, 5% v/v CO2, 37° C.). […]

Chain of EGLN1/PHD2 (Q9GZT9 whole entry): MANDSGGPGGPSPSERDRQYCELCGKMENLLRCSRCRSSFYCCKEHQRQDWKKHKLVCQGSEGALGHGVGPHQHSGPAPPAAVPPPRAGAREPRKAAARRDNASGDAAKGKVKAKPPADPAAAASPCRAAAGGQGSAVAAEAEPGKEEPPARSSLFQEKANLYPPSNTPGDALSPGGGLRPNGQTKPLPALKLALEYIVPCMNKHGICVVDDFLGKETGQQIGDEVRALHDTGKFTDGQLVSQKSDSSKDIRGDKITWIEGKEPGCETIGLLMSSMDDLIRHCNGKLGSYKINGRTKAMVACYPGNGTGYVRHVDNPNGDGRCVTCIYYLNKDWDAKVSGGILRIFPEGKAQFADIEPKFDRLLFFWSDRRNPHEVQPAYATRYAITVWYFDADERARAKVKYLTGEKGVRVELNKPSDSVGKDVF
T1 sequence (Q96KS0 whole entry): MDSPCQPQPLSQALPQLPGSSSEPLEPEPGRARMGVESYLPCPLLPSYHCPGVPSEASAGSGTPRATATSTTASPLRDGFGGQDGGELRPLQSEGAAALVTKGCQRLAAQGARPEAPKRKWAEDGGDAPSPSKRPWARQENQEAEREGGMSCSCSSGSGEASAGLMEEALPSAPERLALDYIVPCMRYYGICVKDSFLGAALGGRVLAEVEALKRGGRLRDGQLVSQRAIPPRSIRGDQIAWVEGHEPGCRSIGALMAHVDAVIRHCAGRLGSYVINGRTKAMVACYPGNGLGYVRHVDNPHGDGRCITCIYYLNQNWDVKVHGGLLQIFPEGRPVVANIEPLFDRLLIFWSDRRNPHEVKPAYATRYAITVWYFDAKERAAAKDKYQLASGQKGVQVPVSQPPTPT

Structure (SMILES)	solubility thermodynamic at 16 h (Solubility in water) [mg/mL]	hygroscopicity [1]	Adsorption ([2]; 0% rh) [%]	Adsorption ([2]; 10% rh) [%]	Desorption ([2]; 10% rh) [%]	Adsorption ([2]; 20% rh) [%]	Desorption ([2]; 20% rh) [%]	Adsorption ([2]; 30% rh) [%]	Desorption ([2]; 30% rh) [%]	Adsorption ([2]; 40% rh) [%]	Desorption ([2]; 40% rh) [%]	Adsorption ([2]; 50% rh) [%]	Desorption ([2]; 50% rh) [%]	Adsorption ([2]; 60% rh) [%]	Desorption ([2]; 60% rh) [%]	Adsorption ([2]; 70% rh) [%]	Desorption ([2]; 70% rh) [%]	Adsorption ([2]; 80% rh) [%]	Desorption ([2]; 80% rh) [%]	Adsorption ([2]; 90% rh) [%]	also measured
[Na+].[O-]c1c(-n2ccnn2)cnn1-c1cc(N2CCOCC2)ncn1 [Compound of the formula (II), sodium 1-[6-(morpholin-4-yl)pyrimidin-4-yl]-4-(1H-1,2,3-triazol-1-yl)-1H-pyrazol-5-olate]	28	not hygroscopic	0	0	0	0.1	0	0.1	0.1	0.2	0.2	0.2	0.3	0.2	0.3	0.4	0.4	0.4	0.5	0.8	IC50 (EGLN2/PHD1): 470 nM; IC50 (EGLN1/PHD2): 140 nM; solubility in water compared to the compound of the formula (I) (Solubility in water): higher solubility in water; water content [2]: less than 0.5 % by weight; Desorption ([2]; 0% rh): 0%; change of water content ([2]; 20-35° C., atmospheric pressure, atmospheric humidity of up to 90% rh): less than 0.5 % by weight; Desorption ([2]; 90% rh): 0.8%; EC50 [3]: 7 nM
Oc1c(-n2ccnn2)cnn1-c1cc(N2CCOCC2)ncn1 [Compound of the formula (I), 1-[6-(morpholin-4-yl)pyrimidin-4-yl]-4-(1H-1,2,3-triazol-1-yl)-1H-pyrazol-5-ol, reference compound]	0.143	hygroscopic	0.1	0.2	0.1	0.3	0.2	4.8	4.7	5.1	5.2	5.3	5.4	5.4	5.6	5.6	5.6	5.7	5.7	5.9	Desorption ([2]; 5% rh (printed in the 0% rh line)): 0.1% (5% rh); uptake of water ([2]; 20-35° C., atmospheric pressure, relative atmospheric humidity above 20% rh): up to 6 % by weight; Desorption ([2]; 90% rh): 5.9%
